Assay results from PubChem BioAssay (NCI).
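Interpolation was linear, between the two tested concentrations surrounding the appropriate level; five concentrations were tested over 48 hours in 96-well plates. GI50: concentration for 50% inhibition of growth. Definition used: TGI = concentration required for complete inhibition of growth.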

Assays:
Test in all cases: NCI anticancer screen, dose series, 48 h
HCC-2998 colon = system: HCC-2998 colon
RPMI-8226 leukemia = system: RPMI-8226 leukemia
U251 CNS = system: U251 CNS
HOP-92 NSCLC = system: HOP-92 NSCLC
UACC-257 melanoma = system: UACC-257 melanoma
NCI-H460 lung = system: NCI-H460 lung
A498 renal = system: A498 renal
SK-MEL-28 melanoma = system: SK-MEL-28 melanoma
IGROV1 ovarian = system: IGROV1 ovarian
SK-MEL-5 melanoma = system: SK-MEL-5 melanoma
MDA-MB-231 breast = system: MDA-MB-231 breast
LOX IMVI melanoma = system: LOX IMVI melanoma
HOP-62 NSCLC = system: HOP-62 NSCLC
EKVX NSCLC = system: EKVX NSCLC
KM12 colon = system: KM12 colon
OVCAR-5 ovarian = system: OVCAR-5 ovarian
SK-OV-3 ovarian = system: SK-OV-3 ovarian
HCT-116 colon = system: HCT-116 colon
CAKI-1 renal = system: CAKI-1 renal
MOLT-4 leukemia = system: MOLT-4 leukemia
HCT-15 colon = system: HCT-15 colon
MDA-MB-435 = system: MDA-MB-435
NCI-H226 lung = system: NCI-H226 lung
SNB-19 CNS = system: SNB-19 CNS
PC-3 prostate = system: PC-3 prostate
NCI-H23 lung = system: NCI-H23 lung
HT29 colon = system: HT29 colon
NCI/ADR-RES ovarian = system: NCI/ADR-RES ovarian
UACC-62 melanoma = system: UACC-62 melanoma
SF-539 CNS = system: SF-539 CNS
UO-31 renal = system: UO-31 renal
HL-60(TB) leukemia = system: HL-60(TB) leukemia
ACHN renal = system: ACHN renal
SK-MEL-2 melanoma = system: SK-MEL-2 melanoma
DU-145 prostate = system: DU-145 prostate
SF-295 CNS = system: SF-295 CNS
786-0 renal = system: 786-0 renal
TK-10 renal = system: TK-10 renal
CCRF-CEM leukemia = system: CCRF-CEM leukemia
SN12C renal = system: SN12C renal
SF-268 CNS = system: SF-268 CNS
MALME-3M melanoma = system: MALME-3M melanoma
T-47D breast = system: T-47D breast
SR leukemia = system: SR leukemia
RXF 393 renal = system: RXF 393 renal
COLO 205 colon = system: COLO 205 colon
SNB-75 CNS = system: SNB-75 CNS
M14 melanoma = system: M14 melanoma
OVCAR-4 ovarian = system: OVCAR-4 ovarian
A549 NSCLC = system: A549 NSCLC
OVCAR-8 ovarian = system: OVCAR-8 ovarian
HS 578T breast = system: HS 578T breast
BT-549 breast = system: BT-549 breast
SW-620 colon = system: SW-620 colon
NCI-H522 lung = system: NCI-H522 lung

## CCOc1ccccc1NC1=C(Cl)C(=O)c2nc(C)ccc2C1=O
HCC-2998 colon
  GI50: 1940 nM
  TGI: 3520 nM
RPMI-8226 leukemia
  GI50: 1200 nM
  TGI: 4710 nM
U251 CNS
  GI50: 1700 nM
  TGI: 3270 nM
HOP-92 NSCLC
  GI50: 1800 nM
  TGI: 3330 nM
UACC-257 melanoma
  GI50: 1280 nM
  TGI: 2610 nM
NCI-H460 lung
  GI50: 3020 nM
  TGI: 11400 nM
A498 renal
  GI50: 2650 nM
  TGI: 10800 nM
SK-MEL-28 melanoma
  GI50: 1710 nM
  TGI: 3140 nM
IGROV1 ovarian
  GI50: 1370 nM
  TGI: 2820 nM
SK-MEL-5 melanoma
  GI50: 1740 nM
  TGI: 3130 nM
MDA-MB-231 breast
  GI50: 1070 nM
  TGI: 2380 nM
LOX IMVI melanoma
  GI50: 839 nM
  TGI: 2220 nM
HOP-62 NSCLC
  GI50: 2270 nM
  TGI: 6740 nM
EKVX NSCLC
  GI50: 1560 nM
  TGI: 2980 nM
KM12 colon
  GI50: 1410 nM
  TGI: 2890 nM
OVCAR-5 ovarian
  GI50: 1840 nM
  TGI: 3330 nM
SK-OV-3 ovarian
  GI50: 13500 nM
  TGI: 27100 nM
HCT-116 colon
  GI50: 1050 nM
  TGI: 2310 nM
CAKI-1 renal
  GI50: 1450 nM
  TGI: 2840 nM
MOLT-4 leukemia
  GI50: 2030 nM
  TGI: 8090 nM
HCT-15 colon
  GI50: 1130 nM
  TGI: 2550 nM
MDA-MB-435
  GI50: 266 nM
  TGI: 671 nM
NCI-H226 lung
  GI50: 1780 nM
  TGI: 4240 nM
SNB-19 CNS
  GI50: 1800 nM
  TGI: 3970 nM
PC-3 prostate
  GI50: 1260 nM
  TGI: 2770 nM
NCI-H23 lung
  GI50: 1440 nM
  TGI: 3550 nM
HT29 colon
  GI50: 3400 nM
  TGI: 15200 nM
NCI/ADR-RES ovarian
  GI50: 1890 nM
  TGI: 5090 nM
UACC-62 melanoma
  GI50: 1800 nM
  TGI: 3360 nM
SF-539 CNS
  GI50: 1670 nM
  TGI: 3090 nM
UO-31 renal
  GI50: 1400 nM
  TGI: 2710 nM
HL-60(TB) leukemia
  GI50: 1030 nM
  TGI: 2920 nM
ACHN renal
  GI50: 1350 nM
  TGI: 2690 nM
SK-MEL-2 melanoma
  GI50: 1440 nM
  TGI: 2860 nM
DU-145 prostate
  GI50: 1630 nM
  TGI: 2990 nM
SF-295 CNS
  GI50: 2030 nM
  TGI: 4200 nM
786-0 renal
  GI50: 1800 nM
  TGI: 3250 nM
TK-10 renal
  GI50: 2250 nM
  TGI: 3720 nM
CCRF-CEM leukemia
  GI50: 1410 nM
  TGI: > 100000 nM
SN12C renal
  GI50: 1590 nM
  TGI: 3040 nM
SF-268 CNS
  GI50: 1470 nM
  TGI: 2940 nM
MALME-3M melanoma
  GI50: 1360 nM
  TGI: 2770 nM
T-47D breast
  GI50: 467 nM
  TGI: 3170 nM
SR leukemia
  GI50: 543 nM
  TGI: 4140 nM
RXF 393 renal
  GI50: 1440 nM
  TGI: 2780 nM
COLO 205 colon
  GI50: 1730 nM
  TGI: 3660 nM
SNB-75 CNS
  GI50: 1630 nM
  TGI: 3430 nM
M14 melanoma
  GI50: 1460 nM
  TGI: 2830 nM
OVCAR-4 ovarian
  GI50: 1000 nM
  TGI: 2220 nM
A549 NSCLC
  GI50: 2060 nM
  TGI: 4650 nM
OVCAR-8 ovarian
  GI50: 1490 nM
  TGI: 2920 nM
HS 578T breast
  GI50: 2110 nM
  TGI: 5250 nM
BT-549 breast
  GI50: 1520 nM
  TGI: 2880 nM
SW-620 colon
  GI50: 1600 nM
  TGI: 3210 nM
NCI-H522 lung
  GI50: 1740 nM
  TGI: 3280 nM
